Experimental data reported in ChEMBL document CHEMBL1201862, “PubChem BioAssay data set” (2004).
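Exposure lasted 48 hours, with cells grown in 96-well plates and compounds tested at five concentrations. GI50 marks 50% less growth.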 Activity calls are given as the source filed them. No stated cut-off is given here; in the data, active = GI50 up to about 1.1 µM and inactive = higher.

What was measured:
Experiment in all cases: NCI anticancer screen, dose series, 48 h
[1] = test system: 786-0
[2] = test system: A498
[3] = test system: A549
[4] = test system: ACHN
[5] = test system: BT-549
[6] = test system: CAKI-1
[7] = test system: CCRF-CEM
[8] = test system: COLO 205
[9] = test system: DU-145
[10] = test system: EKVX
[11] = test system: HCT-116
[12] = test system: HCT-15
[13] = test system: HL-60
[14] = test system: HOP-62
[15] = test system: HOP-92
[16] = test system: HT-29
[17] = test system: Hs-578T
[18] = test system: IGROV-1
[19] = test system: K562
[20] = test system: KM12
[21] = test system: LOX IMVI
[22] = test system: M14
[23] = test system: MCF7
[24] = test system: MDA-MB-231
[25] = test system: MDA-MB-435
[26] = test system: MDA-N
[27] = test system: MOLT-4
[28] = test system: NCI-H226
[29] = test system: NCI-H23
[30] = test system: NCI-H460
[31] = test system: NCI-H522
[32] = test system: NCI/ADR-RES
[33] = test system: OVCAR-3
[34] = test system: OVCAR-4
[35] = test system: OVCAR-5
[36] = test system: OVCAR-8
[37] = test system: PC-3
[38] = test system: RPMI-8226
[39] = test system: RXF 393
[40] = test system: SF-295
[41] = test system: SK-MEL-28
[42] = test system: SK-MEL-2
[43] = test system: SK-MEL-5
[44] = test system: SN12C
[45] = test system: SNB-19
[46] = test system: SW-620
[47] = test system: T47D
[48] = test system: TK-10
[49] = test system: U-251
[50] = test system: UACC-257
[51] = test system: UACC-62
[52] = test system: UO-31
[53] = test system: Malme-3M
[54] = test system: SF-268
[55] = test system: SF-539

Measured: GI50

O=[N+]([O-])c1ccc(C2c3c(O)nc(S)nc3Oc3nc(S)nc(O)c32)cc1
> 100 µM: [12]
inactive: [1] > 100 µM | [2] > 100 µM | [3] > 100 µM | [4] > 100 µM | [5] > 100 µM | [6] > 100 µM | [7] > 100 µM | [8] > 100 µM | [9] > 100 µM | [10] > 100 µM | [11] > 100 µM | [13] > 100 µM | [14] > 100 µM | [15] > 100 µM | [16] > 100 µM | [17] > 100 µM | [18] > 100 µM | [19] > 100 µM | [20] > 100 µM | [21] > 100 µM | [22] > 100 µM | [23] > 100 µM | [24] > 100 µM | [25] > 100 µM | [26] > 100 µM | [27] > 100 µM | [28] > 100 µM | [29] > 100 µM | [30] > 100 µM | [31] > 100 µM | [32] > 100 µM | [33] > 100 µM | [34] > 100 µM | [35] > 100 µM | [36] > 100 µM | [37] > 100 µM | [38] > 100 µM | [39] > 100 µM | [40] > 100 µM | [41] > 100 µM | [42] > 100 µM | [43] > 100 µM | [44] > 100 µM | [45] > 100 µM | [46] > 100 µM | [47] > 100 µM | [48] > 100 µM | [49] > 100 µM | [50] > 100 µM | [51] > 100 µM | [52] > 100 µM

O=C1CCC(=O)N1CNc1ccc2c(c1)Sc1ccccc1O2
inactive: [1] 23.6 µM | [2] 53 µM | [3] 33 µM | [4] 47 µM | [5] 26.6 µM | [6] 32.7 µM | [7] 29 µM | [8] 18 µM | [9] 32.5 µM | [10] 22 µM | [11] 21.3 µM | [13] 4.99 µM | [14] 43.7 µM | [15] 21.5 µM | [16] 23.5 µM | [17] 44.7 µM | [18] 38.9 µM | [19] 49.8 µM | [20] 36.7 µM | [21] 27.3 µM | [22] 27.2 µM | [23] 43.1 µM | [24] 41.9 µM | [25] 31.9 µM | [26] 30.2 µM | [27] 61.7 µM | [53] 58.6 µM | [28] 20.4 µM | [29] 38.5 µM | [31] 23.8 µM | [32] 42.9 µM | [33] 26.5 µM | [34] 33.7 µM | [35] 43.9 µM | [36] 25.9 µM | [37] 32 µM | [38] 33.9 µM | [39] 22.5 µM | [54] 44.8 µM | [40] 29.4 µM | [55] 15.6 µM | [41] 87.3 µM | [42] 18.1 µM | [43] 26.4 µM | [44] 27.6 µM | [45] 67.3 µM | [46] 27.9 µM | [47] 25.2 µM | [48] 38 µM | [49] 30.3 µM | [50] 46.7 µM | [51] 48.9 µM | [52] 23.2 µM
28.4 µM: [12]
